Some results are limits rather than exact numbers.

This passage reports Kd and IC50 results from patent US20240025906A1 (NEURON23, INC., priority 2022, published 2024).

One experiment deals with T1, TYK2 JH2 (Homo sapiens, UniProt P29597).
T1 construct: purchased DiscoverX (KINOMEscan KdELECT service); host or cells: E. coli BL21-derived (T7 phage display) or HEK-293
Kind of experiment: TYK2 JH2 binding assay (KINOMEscan KdELECT competitive binding). Particulars: TYK2 JH2 domain, DiscoverX KINOMEscan KdELECT (Assay A); read-out: Biochemical TYK2_DiscoverX_JH2_BND_Kd. The procedure, abridged:
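JH2-domain fragment, expressed as T7 phage tag in BL21-derived E. coli or DNA-tagged from HEK-293, competed with test compound against bead-immobilized biotinylated ligand in binding buffer (0.9% DMSO). 1 h shaking at room temperature; bound kinase eluted with 0.5 μM free ligand and quantified by qPCR. Kd from 11-point 3-fold dilutions.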

The test system of experiment [1] is JAK1/TYK2 pSTAT5 (Tyr694/699) in THP-1 cell line. Kind of experiment: IFNa-stimulated JAK1/TYK2 pSTAT5 (Tyr694/699) inhibition cellular assay, AlphaLISA. Type of experiment: cell-based. The conditions noted are these: Homo sapiens; THP-1 cells, IFNa-stimulated, AlphaLISA (Assay B); read-out: Cellular_THP1_IFNa-pSTATS_TYK2. The procedure, abridged: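 The readout is AlphaLISA signal at 615 nm for phospho-STAT5 in THP-1 lysates after IFNa stimulation (added at 100 ng/mL, 30 min, 37 °C). Cells had compound for 1 h beforehand across eight 6-fold concentrations up to 10000 nM final. IC50s are 4PL fits with bottom and Hill slope constrained.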
(Bead proximity is the source of the signal in Alpha formats.)

T1 sequence (P29597 589-875 limits assumed): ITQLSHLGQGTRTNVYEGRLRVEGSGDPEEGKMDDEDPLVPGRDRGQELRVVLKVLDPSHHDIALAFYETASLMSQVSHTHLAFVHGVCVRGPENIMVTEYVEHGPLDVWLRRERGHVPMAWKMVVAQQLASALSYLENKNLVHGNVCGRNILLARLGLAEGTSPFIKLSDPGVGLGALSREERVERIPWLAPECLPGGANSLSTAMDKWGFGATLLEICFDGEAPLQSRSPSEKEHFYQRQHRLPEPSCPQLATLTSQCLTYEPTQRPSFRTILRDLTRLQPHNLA

For `CNc1ncc(-c2nc3cc(OC)ccc3o2)c2cc(NC(=O)C3(F)CC3)ncc12` [Example 381, 1-fluoro-N-(5-(5-methoxybenzo[d]oxazol-2-yl)-8-(methylamino)-2,7-naphthyridin-3-yl)cyclopropane-1-carboxamide], the Kd at TYK2 JH2 is no more than 100 nM. The IC50 in experiment [1] is greater than 500 nM.
The corresponding values for `CNc1ncc(-c2nc3cc(OC)ccc3o2)c2cc(NC(=O)[C@H]3C[C@H]3C)ncc12` [Example 384, (1S,2R)-N-(5-(5-methoxybenzo[d]oxazol-2-yl)-8-(methylamino)-2,7-naphthyridin-3-y1)-2-methylcyclopropane-1-carboxamide] are no more than 100 nM and no more than 500 nM.
On the same counts, the results for `CNc1ncc(-c2nc3cc(OC)ccc3o2)c2cc(NC(=O)CC(F)(F)F)ncc12` [Example 386, 3,3,3-trifluoro-N-(5-(5-methoxybenzo[d]oxazol-2-yl)-8-(methylamino)-2,7-naphthyridin-3-yl)propanamide] are no more than 100 nM and no more than 500 nM.
The corresponding values for `CNc1ncc(-c2nc3cc(OC)ccc3o2)c2cc(NC(=O)[C@H]3C[C@H]3F)ncc12` [Example 387, (1R,2R)-2-fluoro-N-(5-(5-methoxybenzo[d]oxazol-2-y1)-8-(methylamino)-2,7-naphthyridin-3-yl)cyclopropane-1-carboxamide] are no more than 100 nM and no more than 500 nM.
For the molecule `CNc1ncc(-c2nc3cc(OC)ccc3o2)c2cc(NC(=O)[C@@H]3C[C@@H]3F)ncc12` [Example 388, (1S,2S)-2-fluoro-N-(5-(5-methoxybenzo[d]oxazol-2-y1)-8-(methylamino)-2,7-naphthyridin-3-yl)cyclopropane-1-carboxamide], at TYK2 JH2, the Kd was no more than 100 nM. The IC50 in experiment [1] was no more than 500 nM.
Take `CNc1ncc(-c2nc3cc(OC)ccc3o2)c2cc(NC(=O)[C@H]3C[C@@H]3F)ncc12` [Example 389, (1R,2S)-2-fluoro-N-(5-(5-methoxybenzo[d]oxazol-2-yl)-8-(methylamino)-2,7-naphthyridin-3-yl)cyclopropane-1-carboxamide]: the Kd on TYK2 JH2 was no more than 100 nM. Besides, the IC50 in experiment [1] was no more than 500 nM.
On the same counts, the results for `CNc1ncc(-c2nc3cc(OC)ccc3o2)c2cc(NC(=O)[C@@H]3C[C@H]3F)ncc12` [Example 390, (1S,2R)-2-fluoro-N-(5-(5-methoxybenzo[d]oxazol-2-yl)-8-(methylamino)-2,7-naphthyridin-3-yl)cyclopropane-1-carboxamide] are no more than 100 nM and no more than 500 nM.
Regarding `CNc1ncc(-c2nc3cc(OC)ccc3o2)c2cc(NC(=O)CC(C)(O)CO)ncc12` (stereo not shown) [Example 402, 3,4-dihydroxy-N-(5-(5-methoxybenzo[d]oxazol-2-yl)-8-(methylamino)-2,7-naphthyridin-3-yl)-3-methylbutanamide], the Kd at TYK2 JH2 is no more than 100 nM. For the same molecule, the IC50 in experiment [1] was greater than 500 nM.
On the same counts, the results for `CNc1ncc(-c2nc3cc(OC)ccc3o2)c2cc(NC3CCC(=O)O3)ncc12` (stereo not shown) [Example 403, 5-((5-(5-methoxybenzo[d]oxazol-2-yl)-8-(methylamino)-2,7-naphthyridin-3-yl)amino)dihydrofuran-2(3H)-one] are no more than 100 nM and greater than 500 nM.
For the molecule `CNc1ncc(-c2nc3cc(OC)ccc3o2)c2cc(NC(=O)C3(O)CC3)ncc12` [Example 404, 1-hydroxy-N-(5-(5-methoxybenzo[d]oxazol-2-yl)-8-(methylamino)-2,7-naphthyridin-3-yl)cyclopropane-1-carboxamide], the Kd on TYK2 JH2 was no more than 100 nM. Besides, the IC50 in experiment [1] was no more than 500 nM.
Turning to `CNc1ncc(-c2nc3cc(N4CCO[C@@H](C)C4)ccc3o2)c2cc(NC(=O)[C@@H]3C[C@@H]3F)ncc12` [Example 407, (1S,2S)-2-fluoro-N-(8-(methylamino)-5-(5-((S)-2-methylmorpholino)benzo[d]oxazol-2-yl)-2,7-naphthyridin-3-yl)cyclopropane-1-carboxamide], on TYK2 JH2, the Kd was no more than 100 nM. Besides, the IC50 in experiment [1] was no more than 500 nM.
